# Active and inactive are the calls of the source. The rule behind the calls is not given here.
# Legend:
# Erythrocyte [1] = experiment: Antioxidant activity in Wistar rat erythrocytes assessed as prolongation of initial inhibition period-lag phase of AAPH-induced hemolysis at 100 uM preincubated for 30 mins before induction measured up to 5 hrs by spectrophotometry; assay type: functional, cell-based
# Erythrocyte [2] = experiment: Antioxidant activity in Wistar rat erythrocytes assessed as prolongation of initial inhibition period-lag phase of t-BuOOH-induced hemolysis at 10 mM preincubated for 30 mins before induction measured up to 5 hrs by spectrophotometry; assay type: functional, cell-based
# Rattus norvegicus [3] = experiment: Antidiabetic activity in streptozotocin-induced diabetic rat assessed as reduction in blood glucose level at 25 mg/kg intra-gastrically administered bid for 4 days followed by single dose on 5th day measured after 3 hrs final dose; assay type: functional, organism-based; set-up: dose 25 mg/kg
# Erythrocyte [4] = experiment: Antioxidant activity in Wistar rat erythrocytes assessed as prolongation of initial inhibition period-lag phase of t-BuOOH-induced hemolysis at 2.5 uM preincubated for 30 mins before induction measured up to 5 hrs by spectrophotometry; assay type: functional, cell-based
# [5] = biological target: Aldo-keto reductase family 1 member B1 (Homo sapiens, UniProt P15121); experiment: Inhibition of aldose reductase
# Rattus norvegicus [6] = experiment: Inhibition of sorbitol accumulation in streptozotocin-induced diabetic rat erythrocytes at 25 mg/kg intra-gastrically bid for 4 days followed by single dose on 5th day measured after 3 hrs final dose by resazurin reduction assay; assay type: functional, organism-based; set-up: dose 25 mg/kg
# Erythrocyte [7] = experiment: Antioxidant activity in Wistar rat erythrocytes assessed as prolongation of initial inhibition period-lag phase of t-BuOOH-induced hemolysis at 100 uM treated 30 mins after induction measured up to 5 hrs by spectrophotometry; assay type: functional, cell-based
# Erythrocyte [8] = experiment: Antioxidant activity in Wistar rat erythrocytes assessed as prolongation of initial inhibition period-lag phase of t-BuOOH-induced hemolysis at 100 uM preincubated for 30 mins before induction measured up to 5 hrs by spectrophotometry; assay type: functional, cell-based
smiles,measurement,setting,value
Cc1c(C)c2c(c(C)c1O)CCC(C)(C(=O)O)O2 (centres undefined),Activity,Erythrocyte [1],Active
NCCC(=O)N[C@@H](Cc1c[nH]cn1)C(=O)O,Activity,Erythrocyte [2],Active
O=C(O)Cc1ccc2[nH]c3c(c2c1)CN(Cc1ccccc1)CC3,Activity,Rattus norvegicus [3],inactive
same,Activity,Erythrocyte [4],Active
same,Activity,Erythrocyte [1],Active
same,IC50,[5],18.2 µM
same,inhibition,Rattus norvegicus [6],Active
same,Activity,Erythrocyte [7],inactive
COc1ccc2[nH]cc(CCNC(C)=O)c2c1,Activity,Erythrocyte [8],inactive
